# In patent publication US8470859B2, “Iminopyridine derivative and use thereof” (Takeda Pharmaceutical Company Limited, priority 2006, dated 2013):
# Where a name gives a salt, the structure may show the parent alone. Read-outs that look alike come from different tables or passages of the source.
# Assays:
# [1] = target: T1, human adrenaline α1D receptor (Homo sapiens, UniProt P25100); assay: Measurement of α1D receptor binding inhibitory activity ([3H]prazosin binding to membrane fraction of CHO-K1 cells expressing the receptor); details: read-out: binding inhibitory rate (%) (α1D receptor binding inhibitory rate at 1 μM)
# T1 construct: expressed in transfected cells; membrane fraction used
# T1 sequence (P25100 1-572): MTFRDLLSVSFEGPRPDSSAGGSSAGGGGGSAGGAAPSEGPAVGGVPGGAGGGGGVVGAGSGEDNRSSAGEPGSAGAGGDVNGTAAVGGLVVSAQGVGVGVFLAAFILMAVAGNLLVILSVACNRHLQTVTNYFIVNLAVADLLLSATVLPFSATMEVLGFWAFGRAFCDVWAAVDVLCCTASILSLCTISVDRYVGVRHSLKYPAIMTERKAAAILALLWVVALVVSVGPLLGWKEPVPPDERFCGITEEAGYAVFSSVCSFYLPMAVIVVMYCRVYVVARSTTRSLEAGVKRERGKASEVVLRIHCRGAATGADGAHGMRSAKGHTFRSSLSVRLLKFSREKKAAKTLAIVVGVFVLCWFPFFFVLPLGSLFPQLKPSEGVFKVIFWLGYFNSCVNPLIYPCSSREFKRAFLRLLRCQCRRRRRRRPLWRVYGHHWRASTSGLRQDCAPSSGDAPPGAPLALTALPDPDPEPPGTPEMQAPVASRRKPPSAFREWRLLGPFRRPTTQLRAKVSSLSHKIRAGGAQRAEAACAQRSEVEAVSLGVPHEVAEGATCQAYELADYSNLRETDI
# Method: Measurement of α1D Receptor Binding Inhibitory Activity
# Genetic manipulation methods described below are based on the methods described in Maniatis et al., Molecular Cloning, Cold Spring Harbor Laboratory, 1989, the protocol appended to a reagent and the like. • (i) Preparation of Human Adrenaline α1D Receptor Expression Plasmid
# Adrenaline α1D receptor gene was cloned from human […] CDNA by the PCR method. PCR reaction was performed by Gene Amp PCR System 9700 (Applied Biosystems) with […] each of the primer set 5′-[…]-3′ [SEQ ID NO: 1] and 5′-[…]-3′ [SEQ ID NO: 2] prepared in reference to the base sequence of the adrenaline α1D receptor gene reported by DEBRA A. et al. (J. Pharamacol. Exp. Ter., 272, 134-142 (1995)), 200 ng of human brain hippocampus cDNA library (Takara Shuzo Co., Ltd.) as a template and TaKaRa LA-Taq DNA Polymerase (Takara Shuzo Co., Ltd.) (reaction conditions: 45 cycles of 94° C. for 15 sec, 68° C. for 3.5 min).
# The PCR fragment obtained above was digested with restriction enzymes NheI (Takara Shuzo Co., Ltd.) and Kpn I (Takara Shuzo Co., Ltd.) and applied to agarose gel electrophoresis to recover DNA fragments. The DNA fragments was ligated with animal cell expression plasmid, pcDNA3.1/Zeo (Invitrogen) digested with NheI and Kpn I, by DNA Ligation Kit Ver.2 (Takara Shuzo Co., Ltd.), and transformed the competent cells of Escherichia coli JM109 to obtain plasmid, pcDNA3. 1/Zeo-Adreα1D. • (ii) Introduction of Human Adrenaline α1D Receptor Expression Plasmid into CHO-K1 Cells and Preparation of Membrane Fraction
# CHO-K1 cells passage cultured in HmF12 medium (Invitrogen) containing 10% fetal bovine serum (TRACE SCIENCETIFIC) in a 150 cm^2 culture flask (Corning Coaster) were detached with 0.5 g/L trypsin-0.2 g/L EDTA (Invitrogen), and the cells were washed with D-PBS(−) (Invitrogen) and centrifuged (1000 rpm, 5 min). Then, using Gene Pulser II (BioRad), DNA was introduced into the cells under the following conditions. 1×10^7 cells suspended in D-PBS(−) (700 μl) and 10 μg of pcDNA3.1/Zeo-Adreα1D were added in a 0.4 cm gap cuvette (BioRad), and electroporation was performed under voltage 0.25 kV, capacitance 960 μF. The cells were cultured in HamF12 medium containing 10% fetal bovine serum and 250 μg/mL Zeocin (Invitrogen) and the Zeocin resistance clones were selected.
# Plurality of Zeocin resistance clones were selected and cultured in a cell culture flask (150 cm^2) until semiconfluent, and the cellular membrane fraction was prepared as follows.
# The semiconfluent cells were detached with 0.02% EDTA containing D-PBS(−) and recovered by centrifugation. The cells were suspended in membrane preparation buffer (10 mM NaHCO3 pH 7.4, protease inhibitor cocktail (Roche)) and disrupted by 3 times of treatment in a polytron homogenizer (model PT-3100, KINEMATICA AG) at 20000 rpm for 20 seconds. After disruption, the cells were centrifuged at 2000 rpm for 10 min and the supernatant containing membrane fractions was obtained. The supernatant was centrifuged using an ultracentrifuge (model L8-70M, rotor 70 Ti, Beckman Instruments) at 30000 rpm for 1 hr to obtain a precipitate containing membrane fractions. The obtained membrane fraction of each clone was subjected to the binding experiment shown below.
# The membrane fraction (20 μg/well) [^3H] prazosin (2.5 nM, PerkinElmer Lifescience), as a ligand, were diluted with a binding assay buffer (50 mM Tris-HCl, 10 mM MgCl2, 0.5% BSA, protease inhibitor cocktail pH 7.5) and added to a 96 well microplate, and reacted at room temperature for 1 hr. For the measurement of non-specific binding, phentolamine (Sigma) was further added to 10 μM. Then, the reaction mixture was filtered and transferred to unifilter GF/C (PerkinElmer Lifescience) by using a cell harvester (PerkinElmer Lifescience). The filter was washed 3 times with ice-cooled 50 mM Tris buffer (pH 7.5). […]
# [2] = test system: isolated bladder muscle of BOO model rat; assay: Effect of various drugs on α1 receptor stimulation-induced contraction of isolated bladder muscle of bladder outlet obstruction (BOO) model rat; details: phenylephrine 3 μmol/L; for IC50: Rattus norvegicus, 0.5 h, concentration inhibiting the average tension by 50%, read-out: Inhibitory effect on phenylephrine-induced contraction IC50 (average method); for IC50 / Inhibitory effect on phenylephrine-induced contraction IC30 (stddev method): cumulative treatment, 3 concentrations, 30 min intervals; for Inhibitory effect on phenylephrine-induced contraction IC30 (stddev method): concentration inhibiting the sustained, rhythmic contractile responses by 30%
# Method: Effect of Various Drugs on α1 Receptor Stimulation-Induced Contraction of Isolated Bladder Muscle of Bladder Outlet Obstruction (BOO) Model Rat
# • (i) Seven-week-old male Wistar rats (CLEA Japan, Inc., Tokyo) were used. BOO rat was prepared according to publications (Hashimoto T, Nagabukuro H and Doi T: Effects of the selective acetylcholinesterase inhibitor TAK-802 on the voiding behavior and bladder mass increase in rats with partial bladder outlet obstruction. J Urol. 174: 1137-41., 2005.). After pentobarbital (50 mg/kg i.p., Dainippon Sumitomo Pharma Co., Ltd., Osaka) anesthesia, a lower middle abdominal incision was made to expose the bladder. The prostate was detached, the urethra was ligated along with a glass rod having an outer diameter of 1.2 mm, and the glass rod was removed to prepare partial obstruction of the urethra. After the surgery, the abdomen was sutured, and penicillin (2000 IU/rat, penicillin G potassium, MEIJI SEIKA KAISHA, LTD., Tokyo) was subcutaneously administered. An animal after 2 to 4 weeks from obstruction surgery was used. • (ii) Contractile Responses of Isolated Bladder Muscle (1) Preparation of Bladder Muscle Specimen
# BOO model rat was sacrificed by decaptation, and the bladder was isolated. Muscle strips (length 7-10 mm, width about 3 mm) in the longitudinal direction were prepared from the bladder except bladder trigone (4-6 specimen from each bladder).
# The prepared bladder muscle specimens were hung in a Magnus bath aerated with 95% O2-5% CO2 gas and filled with modified Krebs solution. The contraction tension was measured by an isometric strain transducer (TSD125C, Biopac systems, Santa Barbara, Calif., USA) and recorded in the hard disc of PC (ThinkCentre, IBM, USA) via an amplifier (DA100C, Biopac systems) and a multichannel data analysis apparatus (MP100A-CE, Biopac systems). For uptaking the data, a dedicated software (Acqknowledge 3.8.1., Biopac systems) was used and the sampling interval was set to 0.2 second (5 Hz). The specimens were hung with a load of about 1 g and, after an equilibration time of 1 hr or longer, the following experiment was performed.
# The specimens were treated with phenylephrine (3 μmol/L) to induce contraction. After the contractile response was stabilized (>20 min), the specimens were cumulatively treated 3 times with a drug at a 10-fold common ratio and 30 min intervals, and the variation in the tension was observed.
# The variation in the tension due to α1 receptor stimulation was evaluated by the two methods shown below [average method and standard deviation (Stddev) method].
# The average tension for one minute was measured immediately before phenylephrine treatment and after the contraction was stabilized after the treatment (immediately before completion of about 20 min observation time), and the difference was taken as 100%. The average tension for one minute was measured immediately before completion of observation time (30 min) after treatment with a drug at each concentration, and the inhibition rate of the drug at each concentration was calculated. In the vehicle treatment group, the variation rate of phenylephrine-induced contraction was calculated every time the specimens were treated 3 times with lo the solvent, and the inhibition rate of the drug at each concentration was adjusted based on the variation rate of the corresponding vehicle treatment group. The concentration (IC50) necessary for inhibiting the average tension by 50% by preclinical package (SAS Institute Japan, Ver. 5.0) was calculated based on the inhibition rate at each concentration.
# The standard deviation was measured immediately before phenylephrine treatment and for 5 min after the contraction was stabilized after treatment (immediately before completion of the about 20 min observation time) and the difference was taken as 100%. […]
# [3] = compound at 1 μM, [3H] prazosin 2.5 nM, membrane fraction 20 μg/well
Compound,"inhibition at 1 µM [1, 3] [%]",also measured
"N=c1c(C(N)=O)cc(Cl)cn1CCc1ccccc1 [Example 23, 5-chloro-2-imino-1-(2-phenylethyl)-1,2-dihydropyridine-3-carboxamide]",81.8,–
"N=c1c(C(N)=O)cc(Cl)cn1CC1CCCCC1 [Example 26, 5-chloro-1-(cyclohexylmethyl)-2-imino-1,2-dihydropyridine-3-carboxamide]",75.7,–
"C[C@H](c1ccccc1)n1cc(Cl)cc(C(N)=O)c1=N [Example 168, 5-chloro-2-imino-1-[(1R)-1-phenylethyl]-1,2-dihydropyridine-3-carboxamide hydrochloride]",94.7,–
"N#Cc1cc(C(N)=O)c(=N)n(Cc2cccc(Cl)c2)c1 [Example 151, 1-(3-chlorobenzyl)-5-cyano-2-imino-1,2-dihydropyridine-3-carboxamide hydrobromide]",–,inhibition at 1 µM [1]: 69.5%
"N#Cc1cc(F)cc(Cn2cc(Cl)cc(C(N)=O)c2=N)c1 [Example 181, 5-chloro-1-(3-cyano-5-fluorobenzyl)-2-imino-1,2-dihydropyridine-3-carboxamide hydrobromide]",95.4,–
"N=c1c(C(N)=O)cc(Cl)cn1Cc1cccc(Cl)c1 [Example 19, 5-chloro-1-(3-chlorobenzyl)-2-imino-1,2-dihydropyridine-3-carboxamide]",99.1,–
"N=c1c(C(N)=O)cc(Cl)cn1[C@@H]1CCc2ccccc21 [Example 169, 5-chloro-1-[(1R)-2,3-dihydro-1H-inden-1-yl]-2-imino-1,2-dihydropyridine-3-carboxamide hydrochloride]",100,–
"N#Cc1ccc(F)c(Cn2cc(Cl)cc(C(N)=O)c2=N)c1 [Example 156, 5-chloro-1-(5-cyano-2-fluorobenzyl)-2-imino-1,2-dihydropyridine-3-carboxamide hydrobromide]",91.8,–
"N#Cc1cc(Cl)cc(Cn2cc(Cl)cc(C(N)=O)c2=N)c1 [Example 182, 5-chloro-1-(3-chloro-5-cyanobenzyl)-2-imino-1,2-dihydropyridine-3-carboxamide hydrobromide]",99.2,–
"N=c1c(C(N)=O)cc(Cl)cn1Cc1ccc(Cl)c(Cl)c1 [Example 20, 5-chloro-1-(3,4-dichlorobenzyl)-2-imino-1,2-dihydropyridine-3-carboxamide]",100,–
COc1ccccc1N1CCN(CCN2C(=O)CC3(CCCC3)CC2=O)CC1 [BMY 7378],–,"IC50 [2]: 270 nM; effect on the rhythmic contractile response induced by phenylephrine (average method and Stddev method), in words [2]: inhibited; Inhibitory effect on phenylephrine-induced contraction IC30 (stddev method) [2]: 89 nM"
"CCOc1ccccc1OCCN[C@H](C)Cc1ccc(OC)c(S(N)(=O)=O)c1 [Tamsulosin, tamsulosin]",–,"IC50 [2]: 34 nM; effect on the rhythmic contractile response induced by phenylephrine (average method and Stddev method), in words [2]: inhibited; Inhibitory effect on phenylephrine-induced contraction IC30 (stddev method) [2]: 9.4 nM"
"CS(=O)(=O)c1cc(Cl)ccc1Cn1cc(Cl)cc(C(N)=O)c1=N [Example 149, 5-chloro-1-[4-chloro-2-(methylsulfonyl)benzyl]-2-imino-1,2-dihydropyridine-3-carboxamide hydrobromide]",96,–
"N=c1c(C(N)=O)cc(Cl)cn1C1CCc2ccccc21 (stereo not drawn) [Example 32, 5-chloro-1-(2,3-dihydro-1H-inden-1-yl)-2-imino-1,2-dihydropyridine-3-carboxamide]",93.9,–
COc1ccccc1N1CCN(CC(O)COc2cccc3ccccc23)CC1 (stereo not drawn) [Naftopidil],–,"IC50 [2]: 1500 nM; effect on the rhythmic contractile response induced by phenylephrine (average method and Stddev method), in words [2]: inhibited; Inhibitory effect on phenylephrine-induced contraction IC30 (stddev method) [2]: 3800 nM"
